Where two headings read alike, the source gives them in different places.
Legend:
[1] = In vitro (pH stability) assay: intramolecular cyclization-release of capsaicin; assay type: physicochemical
Procedure: These compounds are examples of pH activated prodrugs whereby upon exposure to a specific pH, the half-life of the intramolecular cyclization-release reaction is determined. As previously described, the intramolecular cyclization-release reaction results in the concomitant formation of a cyclic urea with the release of the parent drug.
Compounds were incubated in the buffer/biological media indicated (TRIS® obtained from Sigma-Aldrich, St. Louis, Mo., USA, Catalog No. T1503). The reactions were conducted at either room temperature or 37° C.

[2] = target: T1, TRPV receptor (Rattus norvegicus, UniProt O35433); assay: biochemical; assay type: binding
T1 construct: purchased Eurofins, Panlabs/Cerep 286810

[3] = Solubility assay in DI water; assay type: physicochemical; details: for solubility at 24 h: thermodynamic from solid, HCl salts, incubated at 50 or 100 mg/mL in DI water, shaking 24 hours, supernatant quantified
Procedure: In order to determine the aqueous solubility of the compounds described herein, the HCl salts of the following compounds were incubated at either 50 or 100 mg/mL in DI water followed by shaking for 24 hours. The solutions were then centrifuged and visually inspected for insoluble material. In all cases, no insoluble material was observed.

[4] = comparison value; cited from earlier work
[5] = target: T1, TRPV receptor; details: historical controls; read-out: historical control value; cited from earlier work
[6] = pH 7.4, pH = ~7.4 (0.3M aqueous tris buffer), 20° C., read-out: Intramolecular Cyclization-Release Half-life (T1/2)
[7] = pH 7.4, pH = ~7.4 (1.0M aqueous tris buffer), 37° C., read-out: Intramolecular Cyclization-Release Half-life (T1/2)

T1 sequence (O35433 whole entry): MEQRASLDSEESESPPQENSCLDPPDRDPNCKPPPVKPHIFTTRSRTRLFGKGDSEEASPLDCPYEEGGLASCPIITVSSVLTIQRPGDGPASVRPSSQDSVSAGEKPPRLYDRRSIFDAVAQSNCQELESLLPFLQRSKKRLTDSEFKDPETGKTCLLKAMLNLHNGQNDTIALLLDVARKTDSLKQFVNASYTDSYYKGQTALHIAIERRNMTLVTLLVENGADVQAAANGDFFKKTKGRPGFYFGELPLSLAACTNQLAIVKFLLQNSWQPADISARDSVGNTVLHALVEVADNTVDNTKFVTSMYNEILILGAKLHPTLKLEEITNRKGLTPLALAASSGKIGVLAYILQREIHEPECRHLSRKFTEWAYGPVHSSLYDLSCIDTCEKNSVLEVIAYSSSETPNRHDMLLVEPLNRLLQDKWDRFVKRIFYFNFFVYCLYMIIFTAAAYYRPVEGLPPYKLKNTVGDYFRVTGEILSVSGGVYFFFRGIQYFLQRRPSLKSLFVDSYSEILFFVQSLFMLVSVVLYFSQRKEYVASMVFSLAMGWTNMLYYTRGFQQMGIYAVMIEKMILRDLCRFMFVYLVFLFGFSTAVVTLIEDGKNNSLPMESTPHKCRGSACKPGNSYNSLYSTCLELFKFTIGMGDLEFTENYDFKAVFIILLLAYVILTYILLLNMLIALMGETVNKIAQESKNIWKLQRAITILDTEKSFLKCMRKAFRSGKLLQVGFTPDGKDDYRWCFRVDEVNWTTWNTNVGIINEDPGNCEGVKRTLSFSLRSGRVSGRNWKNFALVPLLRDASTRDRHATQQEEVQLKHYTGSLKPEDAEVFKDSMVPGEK

Question: With `COc1cc(CNC(=O)CCCC/C=C/C(C)C)ccc1OC(=O)N1CCNCC1` [Compound 8, (E)-2-methoxy-4-((8-methylnon-6-enamido)methyl)phenyl piperazine-1-carboxylate] as the compound, how does the half-life at 2 weeks ([1]; pH 7.4, pH = ~7.4 (0.3M aqueous tris buffer), 20° C., conversion to capsaicin over 2 weeks, read-out: Intramolecular Cyclization-Release Half-life (T1/2)) read?
Answer: > 14 days

Question: And the inhibition at 100 µM ([2]; @ 100 uM)?
Answer: 23%

Question: What about the IC50 ([2]; read-out: IC50) of the same compound?
Answer: > 100000 nM

Question: What does the source list for `COc1cc(CNC(=O)CCCC/C=C/C(C)C)ccc1OC(=O)N1CCCCC1CN` (stereo not drawn) [Compound 3, (E)-2-methoxy-4-((8-methylnon-6-enamido)methyl)phenyl 2-(aminomethyl)piperidine-1-carboxylate]?
Answer: increase in aqueous solubility from the parent compound, capsaicin ([3]; hydrogen chloride salts vs capsaicin): > 780 fold; solubility at 24 h [3]: > 100 mg/mL; half-life [1, 6]: ~31.6 min; half-life [1, 7]: ~12.9 min

Question: With `COc1cc(CNC(=O)CCCCC=CC(C)C)ccc1O` [Capsaicin, 8-methyl-N-vanillyl-6-nonenamide] as the compound, how does the “aqueous solubility of capsaicin in water” value [4] read?
Answer: ~0.064 mg/mL

Question: What does the source list for `C=C(C)[C@]12C[C@@H](C)[C@@]34O[C@](Cc5ccccc5)(O[C@@H]1[C@@H]3C=C(COC(=O)Cc1ccc(O)c(OC)c1)C[C@]1(O)C(=O)C(C)=C[C@@H]41)O2` [Resiniferatoxin, reference compound]?
Answer: IC50 [5]: 0.46 nM; IC50 [2]: 0.16 nM

Question: For `COc1cc(CNC(=O)CCCC/C=C/C(C)C)ccc1OC(=O)N(C)CCCN` [Compound 6, (E)-2-methoxy-4-((8-methylnon-6-enamido)methyl)phenyl (3-aminopropyl)(methyl)carbamate], which half-life [1, 6] is on record?
Answer: ~44400 min

Question: For `COc1cc(CNC(=O)CCCC/C=C/C(C)C)ccc1OC(=O)N(CCN)CCN` [Compound 5, (E)-2-methoxy-4-((8-methylnon-6-enamido)methyl)phenyl bis(2-aminoethyl)carbamate], which solubility at 24 h [3] is on record?
Answer: > 100 mg/mL

Question: What about the half-life [1, 6] of the same compound?
Answer: ~71.1 min

Question: What about the half-life [1, 7] of the same compound?
Answer: ~24.7 min

Question: With `COc1cc(CNC(=O)CCCC/C=C/C(C)C)ccc1OC(=O)N1CCCC1CN` (stereo not drawn) [Compound 4, (E)-2-methoxy-4-((8-methylnon-6-enamido)methyl)phenyl 2-(aminomethyl)pyrrolidine-1-carboxylate] as the compound, how does the half-life [1, 6] read?
Answer: ~17700 min

Question: Which results are given for `CNCC1CCCCN1C(=O)Oc1ccc(CNC(=O)CCCC/C=C/C(C)C)cc1OC` (stereo not drawn) [Compound 7, (E)-2-methoxy-4-((8-methylnon-6-enamido)methyl)phenyl 2-((methylamino)methyl)piperidine-1-carboxylate]?
Answer: solubility at 24 h [3]: > 50 mg/mL; intramolecular cyclization-release half-life, order of magnitude in words [1]: minutes; Intramolecular Cyclization-Release Half-life (T1/2) ([1]; pH 7.4): ~3.1 min; half-life ([1]; pH 7.4, Intramolecular Cyclization-Release Half-life (T1/2)): ~4.4 min

Question: Which half-life [1, 6] does the source give for `CNCCN(C)C(=O)Oc1ccc(CNC(=O)CCCC/C=C/C(C)C)cc1OC` [Compound 2, (E)-2-methoxy-4-((8-methylnon-6-enamido)methyl)phenyl methyl(2-(methylamino)ethyl)carbamate] here?
Answer: ~192 min

Question: With `COc1cc(CNC(=O)CCCC/C=C/C(C)C)ccc1OC(=O)N(C)CCN` [Compound 1, (E)-2-methoxy-4-((8-methylnon-6-enamido)methyl)phenyl (2-aminoethyl)(methyl)carbamate] as the compound, how does the half-life [1, 6] read?
Answer: ~1450 min
